Reference: patent publication US4025631A, “Dihydroquinoline derivatives of antioxidant activity” (priority 1971, dated 1977)
Where a name gives a salt, the structure may show the parent alone.

Tests used:
[1] = antioxidant effect on fish-meal samples, Warburg apparatus; settings: 40 g. of fish meal + 0.04 g. of antioxidant; for Oxygen Uptake (decrease of O2 pressure, mmHg): 29° C., control 19.5; for Peroxide Number (calculated for 1 g. of fish meal): treated with oxygen, control 7.83
Method: The antioxidant effect of the new substances shown in foodstuffs and nutriments was investigated on fish-meal samples. […] In these experiments the oxygen uptake of fish-meal samples containing the various antioxidants was determined in a Warburg apparatus at 29° C., and the results were compared with those measured on samples containing no antioxidant. The peroxide number of samples treated with oxygen was also determined.

[2] = tested on: encephalomalacia of poultries; settings: versus EMQ; cited from earlier work
[3] = cited from earlier work
rats [4] = settings: 14 days, 0.50 g./kg.; cited from earlier work
animals = settings: longer period, dose of 0.56 g./kg.; cited from earlier work
[5] = LD50 (Korber method, modified by Cornfield); settings: in vivo
From the text: The LD50 values of BHT and EMQ are, on the other hand, the following -- measured according to the Korber method, modified by Cornfield: […]

solubility = format: physicochemical
rats [6] = settings: rat, in vivo
From the text: (§1) Since the novel compounds are completely nontoxic, they can be used with great advantage in animal husbandry and in the food industry, as well as in therapy. On the basis of the investigations carried out on the acute and chronic toxicity of these new active agents, it can be stated that they are completely free of the disadvantages of the hitherto-known antioxidants mentioned above, first of all as regards their use in therapy.

malignant tumors = test: appearance of malignant tumors in animals irradiated with minimum doses for a long period; format: in vivo; settings: minimum irradiation doses for a long period, versus irradiated controls without XAX
From the text: Another important and unexpected property of the new substances is that they exert radiosensibilizing effect. […] On the basis of this property, the new compounds can also be used for the potentiating of the effect of irradiation therapy.

rats [7] = test: continuous administration of XAX for three weeks / 90 days; format: in vivo
From the text: as §1

serum cholesterol level = test: serum cholesterol of cholesterol-treated rabbits; format: in vivo; settings: 1 g. of cholesterol per day, 0.06 g./kg. XAX daily for 70 or 105 days
Method: Due to this fact they can also be used for the prophylaxis and treatment of arteriosclerois. This effect of the new substances was investigated on rabbits treated with 1 g. of cholesterol per day. The animals were treated for 70 or 105 days with daily doses of 0.06 g./kg. of XAX. […] Using the hitherto-known antioxidants, this very favorable and important effect could not be reached at all.

Cc1cc(C(C)(C)C)c(O)c(C(C)(C)C)c1 [BHT]
Oxygen Uptake (decrease of O2 pressure, mmHg) [1]: 16.5 mmHg | Peroxide Number (calculated for 1 g. of fish meal) [1]: 3.42 | activity in encephalomalacia of poultries [2]: far lower activity than EMQ | anophthalmia (teratogeneous effect) ([3]; aftereffect): the appearance of anophthalmia was observed | cholesterol-synthesis in the liver and endogenous epoxidation ([3]; in vivo): the cholesterol-synthesis in the liver as well as the endogenous epoxidation increases | endogenous production of fatty acids and β-oxidation ([3]; in vivo): stimulates the endogenous production of fatty acids and β-oxidation | gestation period ([3]; in vivo): increases the gestation period

CCOc1ccc2c(c1)C(C)=CC(C)(C)N2 [EMQ, 6-ethoxy-2,2,4-trimethyl-1,2-dihydroquinoline]
appetite of the animals (rats [4]): the appetite of the animals was lowered | size of the liver (rats [4]): an increase in size of the liver was observed | appetite (animals): may cause appetite lowering | gain in weight (animals): lowers the gain in weight | Oxygen Uptake (decrease of O2 pressure, mmHg) [1]: 23.5 mmHg | Peroxide Number (calculated for 1 g. of fish meal) [1]: 2.87 | LD50 [5]: 2230 ± 300 mg/kg

CC1=CC(C)(C)Nc2ccc(Cc3ccc4c(c3)C(C)=CC(C)(C)N4)cc21 [Example 8, bis-(2,2,4-trimethyl-1,2,-dihydroquinolyl-6)-methane]
solubility in water and alcohol (solubility): well soluble in water and alcohol

CC1=CC(C)(C)Nc2ccc(Cc3ccc4c(c3)C(C)=CC(C)(C)N4)cc21 [Example 9, bis-(2,2,4-trimethyl-1,2-dihydroquinolyl-6)-methane]
solubility in water and alcohol (solubility): soluble in water and alcohol

CC1=CC(C)(C)Nc2ccc(Cc3ccc4c(c3)C(C)=CC(C)(C)N4)cc21 [XAX, bis-(2,2,4-trimethyl-1,2-dihydroquinolyl-6)-methane]
toxic symptoms (rats [6]): no toxic symptoms | appearance of malignant tumors (malignant tumors): could be suppressed | Oxygen Uptake (decrease of O2 pressure, mmHg) [1]: 11.5 mmHg | Peroxide Number (calculated for 1 g. of fish meal) [1]: 1.54 | damaging of tissues or cells (rats [7]; daily doses of 0.25 mg./kg., three weeks): no damaging of tissues or cells could be observed | weight gain and blood picture (rats [7]; rats, 90 days, same dose): Neither the weight gain nor the blood picture of the animals was harmfully affected | weight gain of some organs (rats [7]; rats, 90 days, same dose, versus untreated animals): no excessive weight gain of some organs of the animals could be observed | harmful effects (rats [7]; rats, same dose (0.25 mg./kg. daily), 90 days): No harmful effects could be observed | cholesterol level of the blood (serum cholesterol level): the cholesterol level of the blood decreased to a great extent

CC1=CC(C)(C)Nc2ccc(Cc3ccc4c(c3)C(C)=CC(C)(C)N4)cc21 [sulfuric acid salt of XAX]
solubility in water and alcohol (solubility): soluble in water and alcohol
